The results in this text go back to patent US11390597B2, “Salt and solid state forms of escitalopram” (priority 2017, dated 2022).

Data set [1] is described as follows: Comparative pharmacokinetics of escitalopram salts, IV and SC administration in rats. In kind it is in vivo. The following applies: Sprague dawley rats, single IV dose 1 mg/kg or SC dose 5 mg/kg, blood analyzed for escitalopram. The protocol:
Escitalopram salt solutions are prepared for intravenous (IV) and/or subcutaneous (SC) administration as follows: A 1 mg/kg solution of escitalopram oxalate (Ox-Esc) is prepared for IV administration at 1 mL/kg in 10% DMSO, 30% Solutol® (polyoxyethylated 12-hydroxystearic acid), 60% PBS.
A 1 mg/kg solution of escitalopram pamoate (P-Esc) is prepared for IV administration 1 mL/kg in 10% DMSO, 30% Solutol®, 60% PBS, and for SC administration 200 uL of 5 mg/kg in DMSO.
The pharmacokinetics of IV administered escitalopram oxalate are determined as follows. […] Blood is collected from rats post dose in EDTA K2 tubes in a staggered design (cohort 1: 0 min, 30 min, 4 hr, 24 hr; cohort 2: 5 min, 1 hr, 8 hr, 36 hr; cohort 3: 15 min, 2 hr, 12 hr, 48 hr) and analyzed for escitalopram.
The pharmacokinetics of IV administered escitalopram pamoate are determined as follows. […] Blood is collected from rats post dose in EDTA K2 tubes in a staggered design (cohort 1: 0 min, 30 min, 4 hr, 24 hr; cohort 2: 5 min, 1 hr, 8 hr, 36 hr; cohort 3: 15 min, 2 hr, 12 hr, 48 hr) and analyzed for escitalopram.
The pharmacokinetics of SC administered escitalopram pamoate are determined as follows. […] Blood is collected from rats post dose in EDTA K2 tubes in a staggered design (cohort 1: 0 min, 1 hr, 8 hr, 48 hr; cohort 2: 5 min, 2 hr, 24 hr, 72 hr; cohort 3: 30 min, 4 hr, 36 hr, 96 hr) and analyzed for escitalopram. […]

A short description of data set [2]: Treatment of human subjects with escitalopram gentisate composition. The data set is classed as in vivo. The following applies: human subject afflicted with a neuropsychiatric disorder, periodic administration (IV, oral, subcutaneous). An excerpt:
Periodic administration is meant to include inter alia IV, oral and subcutaneous administration.

The structures appear in SMILES notation.

`CN(C)CCCC1(c2ccc(F)cc2)OCc2cc(C#N)ccc21.O=C(O)c1cc(O)ccc1O` (centres unmarked) [escitalopram gentisate]: the “pharmacokinetic profile compared with pamoate and oxalate salts” value in data set [1] is “distinct from those of the pamoate and oxalate salts”. Besides, in data set [2], the “reducing or eliminating the symptoms of the neuropsychiatric disorder” value is “clinically meaningful advantage in reducing or eliminating the symptoms”.
